Laboratory results taken from patent US11072635B2, “Macrocyclic broad spectrum antibiotics” (priority 2015, dated 2021).
In brackets after ≈: the same amount, converted by molar mass. Like-named read-outs stand apart in the source and are kept apart here.

What was measured:
[1] = tested on: Methicillin Resistant Staphylococcus aureus strain USA 300, NRS384 (S. aureus); assay: Minimum inhibitory concentration, broth micro-dilution (CLSI); assay type: cell-based
Procedure: (§1) In vitro antimicrobial activity of each compound was determined by measuring minimal inhibitor concentrations (MICs) using the broth micro-dilution technique as approved by the Clinical and Laboratory Standards Institute (CLSI) (Methods for Dilution Antimicrobial Susceptibility Tests for Bacteria that Grow Aerobically; Approved Standard—Eighth Edition. CLSI document M07-A8. Wayne, Pa.: Clinical and Laboratory Standards; 2009). Antibacterial activity was measure against three strains of bacteria: a Methicillin Resistant Staphylococcus aureus strain USA 300, NRS384 (S. aureus); a strain of Escherichia coli MC4100 harboring the IMP4213 (E. coli IMP), which results in increased outer-membrane permeability (B Martin and Silhavy T. Imp/OstA is required for cell envelope biogenesis in Escherichia coli. (2002) Molecular Microbiology, 45(5), 1289-1302), and Escherichia coli ATCC 25922 (E. coli), a clinically relevant Gram-negative strain. Cells were inoculated onto plates of Trypyticase Soy Agar or Luria Agar respectively and grown at 35° C. for 20 hours. Inocula suspensions were prepared by scraping cells into 1 mL of testing media (cation adjusted Mueller Hinton Broth supplemented with 0.002% v/v Tween-80) and diluting to a final OD600 nm of 0.01.
(§2) Test compounds were prepared in DMSO at a concentration of 10 mg/mL. […] In protocol 2, the compound stocks were diluted into testing media at a concentration of 4 μg/mL and serial 2-fold dilutions were made in the same media, in 96-well U bottom microtiter dishes, for a total of 10 compound concentrations. In protocol 3, compound stocks were diluted into testing media at a concentration of 0.5 μg/mL, with serial 2-fold dilutions conducted as described above. […] Inocula suspensions were added to the 2-fold serial dilutions of test compounds to a final density of OD OD600 nm of 0.0005 and incubated at 35° C. for 22 hours.

[2] = target: T1, SpsB (Staphylococcus aureus signal peptidase) (Staphylococcus aureus, UniProt P0A070); assay: Whole-cell SpsB biochemical screening assay (kinetic fluorogenic enzyme activity)
T1 construct: a suspension of Staphylococcus aureus cells as a source of SpsB instead of recombinant SpsB protein; endogenous in cells; host or cells: S. aureus, USA300 background, overexpressing SpsB (whole-cell suspension)
T1 sequence (P0A070 whole entry): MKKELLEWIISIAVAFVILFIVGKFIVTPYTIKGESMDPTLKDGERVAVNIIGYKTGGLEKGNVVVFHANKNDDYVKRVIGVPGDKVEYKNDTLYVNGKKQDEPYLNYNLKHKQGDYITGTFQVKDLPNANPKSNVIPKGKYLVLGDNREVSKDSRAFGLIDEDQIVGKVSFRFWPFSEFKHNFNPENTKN
Procedure: A kinetic fluorogenic enzyme activity assay was used to assess inhibition of SpsB (Staphylococcus aureus signal peptidase) activity and IC50s were determined. This assay uses a suspension of Staphylococcus aureus cells as a source of SpsB instead of recombinant SpsB protein.
Cell preparation: Luria broth (LB) was inoculated with S. aureus (USA300 background, overexpressing SpsB) and shaken at 37° C. until an OD600 nm of 1.5-2.0 was reached (˜4 hr). The culture was then diluted to an OD600 nm of 1.0 with LB, aliquoted and centrifuged at 10,000×g for 2 mins. The supernatant was removed and the pellet was resuspended in phosphate buffer (1×PBS, 12.5 mg/L MgCl2, 25 mg/L CaCl2, 0.1% Tween-80) to an OD600 nm of 0.5, then centrifuged again at 10,000×g for 2 mins. The supernatant was removed and the pellets were frozen at −20° C.
Test compounds were prepared in DMSO at a concentration of 10 mg/mL. These compound stocks were diluted into DMSO to a concentration of 25 μg/mL and serial 3-fold dilutions were made in DMSO, for a total of 11 compound concentrations. 20 nL of each compound solution was pre-spotted into a white 384-well plate (50 μL/well polypropylene, Nunc) using acoustic fluid transfer (Echo).
Frozen S. aureus pellets were resuspended in assay buffer (1×PBS, 12.5 mg/L MgCl2, 25 mg/L CaCl2, 0.1% Tween-80) to an OD600 nm of 0.05, then mixed 1:1 (v/v) with 20 μM substrate ((Dabcyl)βAla-KPAKAAE(Edans)) in assay buffer, and this solution was added (20 μL/well) to the 384-well plate that had been pre-spotted with compound. Fluorescence intensity was then immediately read kinetically for 30 minutes with 2 minute read intervals to monitor cleavage of the internally quenched peptide substrate (excitation wavelength=340 nm, emission wavelength=490 nm, Molecular Devices Spectramax M5). Reaction rate (slope) was plotted against inhibitor concentration to derive the IC50.

[3] = tested on: Escherichia coli MC4100 harboring the IMP4213 (E. coli IMP); assay: microbe, parasite or virus in culture; assay type: cell-based; conditions: 22 h, read-out: MIC (μg/mL) E. coli IMP
Procedure: as §1, §2

[4] = tested on: Escherichia coli ATCC 25922 (E. coli); assay: Minimum inhibitory concentration, broth micro-dilution (CLSI); assay type: cell-based; conditions: read-out: MIC (μg/mL) E. coli
Procedure: Cells were inoculated onto plates of Trypyticase Soy Agar or Luria Agar respectively and grown at 35° C. for 20 hours. Inocula suspensions were prepared by scraping cells into 1 mL of testing media (cation adjusted Mueller Hinton Broth supplemented with 0.002% v/v Tween-80) and diluting to a final OD600 nm of 0.01.
as §2

[5] = MRSA / NRS 384 / USA300, 22 h, read-out: MIC (μg/mL) S. aureus
[6] = ATCC25922, E. coli ATCC 25922, 35° C., 22 hours
[7] = MRSA / NRS 384 / USA300, MRSA USA 300, NRS384, 35° C., 22 hours, cation adjusted Mueller Hinton Broth with 0.002% Tween-80, read-out: MIC (μg/mL) S. aureus

Row | Compound | MIC [1, 5] [µg/mL] | IC50 [2] [nM] | MIC [3] [µg/mL] | MIC ([4]; ATCC25922, 22 h) [µg/mL] | MIC [4, 6] [µg/mL] | MIC [1, 7] [µg/mL]
1 | CCCCCCCCc1ccc(C(=O)N[C@@H](CCN)C(=O)N(C)[C@@H]2C(=O)N[C@@H](C)C(=O)N[C@H](C(=O)NOC)Cc3ccc(OCCN)c(c3)-c3cc2ccc3OCCN)c(C)c1 [Compound 113] | 0.063 (≈ 0.0733 µM) | 1.2 | 0.047 (≈ 0.0547 µM) | 4 (≈ 4.66 µM) |  | 
2 | CCCCc1ccc(-c2ccc(C(=O)N[C@@H](CCCCN)C(=O)N(C)[C@@H]3C(=O)N[C@@H](C)C(=O)N[C@H](C(=O)NCCC#N)Cc4ccc(OCCN)c(c4)-c4cc3ccc4OCCN)cc2)cc1 [Compound 119] |  | 71 | 1 (≈ 1.09 µM) |  | 24 (≈ 26.2 µM) | 
3 | CCCCCCCCCCCCCC(=O)N[C@@H](CCCCN)C(=O)N(C)[C@@H]1C(=O)N[C@@H](C)C(=O)N[C@H](C(=O)NCCC#N)Cc2ccc(OCCN)c(c2)-c2cc1ccc2OCCN [Compound 120] |  | 18 | 0.5 (≈ 0.562 µM) |  | 16 (≈ 18 µM) | 2 (≈ 2.25 µM)
4 | CCCCc1ccc(-c2ccc(C(=O)N[C@@H](CCCCN)C(=O)N(C)[C@@H]3C(=O)N[C@@H](C)C(=O)N[C@H](C(=O)Nc4ccncc4C#N)Cc4ccc(OCCN)c(c4)-c4cc3ccc4OCCN)cc2)cc1 [Compound 121] |  | 12 | 0.25 (≈ 0.259 µM) |  | 8 (≈ 8.29 µM) | 4 (≈ 4.14 µM)
5 | CCCCc1ccc(-c2ccc(C(=O)N[C@@H](CN)C(=O)N(C)[C@@H]3C(=O)N[C@@H](C)C(=O)N[C@H](c4nnn[nH]4)Cc4ccc(OCCN)c(c4)-c4cc3ccc4OCCN)cc2)cc1 [Compound 123] |  | 15 | < 0.063 |  | 8 (≈ 9.46 µM) | 1.5 (≈ 1.77 µM)
6 | CCCCc1ccc(-c2ccc(C(=O)N[C@@H](CN)C(=O)N(C)[C@@H]3C(=O)N[C@@H](C)C(=O)N[C@H](C#N)Cc4ccc(OCCN)c(c4)-c4cc3ccc4OCCN)cc2)cc1 [Compound 124] |  | 14 | 0.5 (≈ 0.623 µM) |  | 8 (≈ 9.96 µM) | 1 (≈ 1.25 µM)
7 | CCCCc1ccc(-c2ccc(C(=O)N[C@@H](CN)C(=O)N(C)[C@@H]3C(=O)N[C@@H](C)C(=O)N[C@H](c4noc(=O)[nH]4)Cc4ccc(OCCN)c(c4)-c4cc3ccc4OCCN)cc2)cc1 [Compound 125] |  | 1 | 0.036 (≈ 0.0418 µM) |  | 0.5 (≈ 0.58 µM) | 0.38 (≈ 0.441 µM)
8 | CCCCc1ccc(-c2ccc(C(=O)N[C@@H](CN)C(=O)N(C)[C@@H]3C(=O)N[C@@H](C)C(=O)N[C@H](c4n[nH]c(=O)[nH]4)Cc4ccc(OCCN)c(c4)-c4cc3ccc4OCCN)cc2)cc1 [Compound 126] |  | 6.2 | 0.031 (≈ 0.036 µM) |  | 1 (≈ 1.16 µM) | 4 (≈ 4.65 µM)
9 | CCCCc1ccc(-c2ccc(C(=O)N[C@@H](CN)C(=O)N(C)[C@@H]3C(=O)N[C@@H](C)C(=O)N[C@H](CC#N)Cc4ccc(OCCN)c(c4)-c4cc3ccc4OCCN)cc2)cc1 [Compound 127] |  | 2.7 | 2 (≈ 2.45 µM) |  | 32 (≈ 39.2 µM) | 2 (≈ 2.45 µM)
10 | CCCCc1ccc(-c2ccc(C(=O)N[C@@H](CCCN)C(=O)N(C)[C@@H]3C(=O)N[C@@H](C)C(=O)N[C@H](C(=O)NS(N)(=O)=O)Cc4ccc(OCCN)c(c4)-c4cc3ccc4OCCN)cc2)cc1 [Compound 128] | 1.5 (≈ 1.62 µM) | 1.5 | 0.012 (≈ 0.0129 µM) | 0.75 (≈ 0.808 µM) |  | 
